Measured values from BindingDB's records for doi:10.1002/cbic.201000339 (University of York, 2010).

Target: T1, Alpha-fucosidase-like protein (Bacteroides thetaiotaomicron (strain ATCC 29148 / DSM 2079 / JCM 5827 / CCUG 10774 / NCTC 10582 / VPI-5482 / E50), UniProt Q8ABG8)
T1 sequence (Q8ABG8 whole entry): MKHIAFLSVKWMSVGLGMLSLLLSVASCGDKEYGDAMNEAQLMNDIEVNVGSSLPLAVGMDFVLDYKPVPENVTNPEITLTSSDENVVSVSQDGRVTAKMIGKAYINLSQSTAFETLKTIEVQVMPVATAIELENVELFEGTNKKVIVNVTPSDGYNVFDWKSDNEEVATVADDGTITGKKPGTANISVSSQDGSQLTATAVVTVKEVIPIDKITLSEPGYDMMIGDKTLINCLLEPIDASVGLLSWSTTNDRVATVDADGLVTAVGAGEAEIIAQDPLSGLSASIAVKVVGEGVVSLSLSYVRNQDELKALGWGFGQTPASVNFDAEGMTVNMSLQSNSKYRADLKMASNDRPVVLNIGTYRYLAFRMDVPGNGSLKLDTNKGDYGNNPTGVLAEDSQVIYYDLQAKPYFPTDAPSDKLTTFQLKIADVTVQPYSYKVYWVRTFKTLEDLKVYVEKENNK
Test: Enzyme Assay
Details: 37 °C
Experimental: The kinetic studies involving a spectrophotometric product were conducted by monitoring the change in UV/visible absorbance with a Cintra 10 spectrophotometer.

| Compound | Kd (pH 6) | Kd (pH 6.5) | Kd (pH 8.5) |
| --- | --- | --- | --- |
| C[C@@H]1NC[C@@H](O)[C@H](O)[C@@H]1O | 14.8 nM | 27 nM | 372 nM |
| CC1NC(CNC(=O)c2cccc3c2C(=O)c2ccccc2-3)C(O)C(O)C1O (stereo not given) [Fucosidase Inhibitor, 4] | 46.6 nM |  | 157 nM |
